{"source": "PubChem BioAssay AID687029", "about": "(Broad Institute, 2013)", "data": [{"tested_on": "RMG-1 viability, CellTiterGlo ATP luminescence, 96 h", "test": "cytotoxicity in PAX8-dependent RMG-1 cells, dose response, cell-based, cherry-pick (AID 687029)", "units": {"AC50": "nM"}, "values": [{"compound": "C[C@@H]1CCCCO[C@@H](CN(C)Cc2ccc(C(F)(F)F)cc2)[C@@H](C)CN([C@@H](C)CO)C(=O)c2cc(NS(=O)(=O)c3ccc(F)cc3)ccc2O1", "AC50": 35500}, {"compound": "Cc1ccc(C(=O)N/C(=C\\c2ccc(-c3ccc(Br)cc3)o2)C(=O)NCCCN(C)C)cc1", "AC50": 12500}, {"compound": "CCCNC(=O)Nc1ccc2c(c1)OC[C@H](C)N(Cc1ccc(-c3ccccn3)cc1)C[C@@H](C)[C@@H](OC)CN(C)C2=O", "AC50": "< 260"}, {"compound": "CCCC1=Nc2cc(C(=O)NCCCOCC)ccc2Sc2ccccc21", "AC50": "< 260"}, {"compound": "O=C(Nc1cccc(NC(=O)c2cccs2)c1)c1ccc([N+](=O)[O-])o1", "AC50": 11100}, {"compound": "Cc1ccsc1/C=N/Nc1cccc(C(=O)O)c1", "AC50": 13200}, {"compound": "O=c1cc(-c2ccccc2)oc2ccc3ccccc3c12", "AC50": "< 260"}, {"compound": "C[C@@H]1O[C@@H](O[C@@H]2C=C3CC[C@@H]4C(CC[C@]5(C)[C@@H](c6ccc(=O)oc6)CC[C@]45O)[C@@]3(C)CC2)[C@H](O)[C@H](O)[C@H]1O", "note": "(some centres not stated)", "AC50": "< 260"}, {"compound": "Cc1nnc(N/N=C/c2cc(C)n(-c3ccc(F)cc3)c2C)n1N", "AC50": 8360}, {"compound": "COc1cccc(-c2ccc([C@H]3[C@@H](CO)N(C(=O)Cc4ccccc4)[C@H]3C#N)cc2)c1", "AC50": "< 260"}, {"compound": "N#Cc1ccc(-c2ccc(C3[C@@H]4CN(C(=O)C5CC5)C[C@H]3N4)cc2)cc1", "note": "(some centres not stated)", "AC50": "< 260"}, {"compound": "C[C@@H]1CCCCO[C@H](CN(C)C(=O)C2CCCCC2)[C@@H](C)CN([C@@H](C)CO)C(=O)c2cc(NC(=O)Nc3ccc(F)cc3)ccc2O1", "AC50": "< 260"}, {"compound": "COc1cccc(S(=O)(=O)NCC(=O)Nc2ccc(C(C)(C)C)cc2)c1", "AC50": "< 260"}, {"compound": "COc1ccc(Cn2cc3c(-c4ccc(F)cc4)nnc-3c3cc(OC)c(OC)cc32)cc1", "AC50": 21300}, {"compound": "Cn1c(SCC(=O)c2ccccc2)nnc1-c1ccccn1", "AC50": 1420}, {"compound": "CCOc1ccc(-n2c(=S)sc3c(=O)[nH]c(SCC(=O)NCC4CCCO4)nc32)cc1", "note": "(configuration not stated)", "AC50": "< 260"}, {"compound": "Cc1cnc(NC(=O)c2ccc3c(c2)OCCO3)s1", "AC50": "< 260"}, {"compound": "O=C(Nc1ccc(Cl)c(Cl)c1)N[C@@H]1CC[C@H](CCn2cc(C3CCCCC3)nn2)O[C@H]1CO", "AC50": "< 260"}, {"compound": "COc1ccc(NC(=O)Nc2ccc3c(c2)C(=O)N([C@@H](C)CO)C[C@@H](C)[C@@H](CN(C)CC2CCCCC2)OCCCC[C@@H](C)O3)cc1", "AC50": "< 260"}, {"compound": "CCC(c1nnnn1Cc1ccccc1)N1CCC(n2c(=O)[nH]c3ccccc32)CC1", "note": "(configuration not stated)", "AC50": "< 260"}, {"compound": "C#CCN(C[C@@H]1[C@@H](OC(=O)NCc2ccccc2F)[C@@H](OC(=O)NCc2ccccc2F)Cn2c(=O)ccc(=O)n21)S(=O)(=O)c1ccc(C)cc1", "AC50": "< 260"}, {"compound": "COc1ccccc1C(=O)Nc1nc2ccccc2[nH]1", "AC50": 12300}, {"compound": "COc1cc(/C=N/O)ccc1OCc1ccc(C(=O)O)cc1", "AC50": 12800}, {"compound": "COc1ccc(-c2nc3c(c(SCC(=O)Nc4cccc(O)c4)n2)Cc2c(CO)cnc(C)c2O3)cc1", "AC50": 10500}, {"compound": "CC(C)CCCCCCCCCCCCC(=O)NCC(=O)NC1C(C)OC(Nc2ncnc3nc[nH]c23)C(O)C1O", "note": "(configuration not stated)", "AC50": 275}, {"compound": "O=C(c1cc([N+](=O)[O-])ccc1N1CCOCC1)N1CCN(c2ccccc2)CC1", "AC50": "< 260"}, {"compound": "Cn1ncc2c(O/N=C(\\N)c3ccc(C(F)(F)F)cc3)ncnc21", "AC50": "< 260"}, {"compound": "CC1CC(C)(O)CC(C(O)CC2CC(=O)NC(=O)C2)C1=O", "note": "(configuration not stated)", "AC50": "< 260"}, {"compound": "CC1CN(CC(O)COC(c2ccccc2)c2ccccc2)CC(C)O1", "note": "(configuration not stated)", "AC50": "< 260"}, {"compound": "O=C(NC12CC3CC(CC(C3)C1)C2)c1ccc([N+](=O)[O-])o1", "AC50": "< 260"}, {"compound": "COc1cc(C=C2C(=O)C=CC2=O)ccc1O", "AC50": "< 260"}, {"compound": "CCN(CC(=O)Nc1c(F)cccc1F)C(=O)c1cc(S(=O)(=O)N(C)C)ccc1N1CCCC1", "AC50": "< 260"}, {"compound": "CCOC(=O)c1c(-c2ccc(F)cc2)csc1NC(=O)CN1C(=O)NC2(CCCCC2C)C1=O", "note": "(configuration not stated)", "AC50": 12400}, {"compound": "Cc1cc(C2=NNC(=NC3CC3)SC2)c(C)n1-c1ccccc1F", "AC50": "< 260"}, {"compound": "CCSc1cc(N2CCOCC2)nc(-c2ccc(Cl)cc2)n1", "AC50": "< 260"}, {"compound": "O=C(NCc1cc(C(F)(F)F)ccc1Cl)c1cccc2c1C(=O)c1ccc(N3CCC(N4CCCCC4)CC3)cc1S2(=O)=O", "AC50": "< 260"}, {"compound": "COc1cccc(CC(=O)Nc2nc3c(s2)C(=O)CC(C)(C)C3)c1", "AC50": "< 260"}, {"compound": "Cc1cccc(N(Cc2cc(=O)[nH]c3ccccc23)C(=O)CCl)c1", "AC50": "< 260"}, {"compound": "CCC(=O)NC(c1ccc(C)cc1)c1ccc2cccnc2c1O", "note": "(configuration not stated)", "AC50": "< 260"}, {"compound": "O=C(O)c1cccc(COc2ccc3c(c2)CCC3)c1", "AC50": "< 260"}, {"compound": "C[C@H](CO)N1C[C@H](C)[C@H](CN(C)S(=O)(=O)c2ccc(Cl)cc2)OCCCC[C@H](C)Oc2ccc(NS(=O)(=O)c3ccc(F)cc3)cc2C1=O", "AC50": "< 260"}, {"compound": "CCCn1c(C)cc(C(=O)CN2C(=O)c3ccccc3S2(=O)=O)c1C", "AC50": "< 260"}]}]}
